Assay results taken from publication PMC9586926, “An efflux-susceptible antibiotic-adjuvant with systemic efficacy against mouse infections” (Scientific Reports, 2022).
In brackets after ≈: the same amount, converted by molar mass. Like-named read-outs stand apart in the source and are kept apart here. Where a SMILES comes first, the peptide text is derived from it. [ ]: non-standard residue; d: D form. The star is where a group is joined. 12Ado = NCCCCCCCCCCCC(=O)O; Decanoyl = CCCCCCCCCC(=O)*; Orn = NCCC[C@H](N)C(=O)O; Dap = NC[C@H](N)C(=O)O

Experiments:
E. coli = experiment: MIC, broth microdilution; type: cell-based, Escherichia coli; settings: broth microdilution in LB, 18–24 h, 37 °C; n = 4 strains; published data in bold (not discernible)
Excerpt: (§1) Bacteria used in this study consisted of standard American Type Culture Collection (ATCC; Biological Industries, Beit Haemek, Israel) strains, clinically isolated (CI; Sourasky Medical Center, Tel Aviv, Israel) strains, as well as isogenic mutant strains. Gram-negative bacteria included Acinetobacter baumannii ATCC 19606; Escherichia coli ATCC 25922, 35218, CFT073, CI 14384, 16327, and the isogenic pair Ag100 (wild-type) and its efflux deficient mutant Ag100a (ΔacrAB); Klebsiella pneumoniae CI 1287, 224; Pseudomonas aeruginosa ATCC 27853, CI 1278, 8634; Salmonella enterica serovar Typhimurium ATCC 14028 (wild-type) and its isogenic efflux deficient mutant ΔacrAB. Bacteria were grown in Luria–Bertani broth (LB; 5 g/l NaCl, 5 g/l yeast extract, 10 g/l tryptone; pH = 7.0) at 37 °C with shaking. Over-night cultures were diluted 10-folds into fresh growth-medium and incubated at 37 °C with shaking until reaching mid-logarithmic phase. Then, bacterial concentrations were adjusted using O.D.600 nm measurements, and bacteria were subjected to the experimental procedures listed herein.
(§2) MIC was determined according to the broth microdilution method: antimicrobials were subjected to serial twofold dilutions in LB medium, and incubated with 5 × 10^5 CFU/ml of bacteria (final volume of 200 µl) for 18–24 h at 37 °C. Then, O.D.620 nm was measured (BioTek Instruments Synergy HT; Winooski, VT, USA), and the MIC was defined as the lowest antimicrobial concentration for which no increase in O.D.620 nm was evident, compared to the untreated control.

P. aeruginosa = experiment: MIC, broth microdilution; type: cell-based, Pseudomonas aeruginosa; settings: broth microdilution in LB, 18–24 h, 37 °C; n = 3 strains
Excerpt: as §1, §2

K. pneumoniae = experiment: MIC, broth microdilution; type: cell-based, Klebsiella pneumoniae; settings: broth microdilution in LB, 18–24 h, 37 °C; n = 2 strains
Excerpt: as §1, §2

A. baumannii = experiment: MIC, broth microdilution; type: cell-based, Acinetobacter baumannii; settings: broth microdilution in LB, 18–24 h, 37 °C; n = 1 strain
Excerpt: as §1, §2

RAW 264.7 = experiment: Cytotoxicity, Alamar blue; type: cell-based, murine; settings: 24 h incubation, read-out: IC50 RAW 264.7 (50% inhibition of cells respiration)
Experimental: (§3) Cell lines used in this study included murine RAW 264.7 macrophages and human embryonic kidney HEK-293FT cells (ATCC, Biological Industries, Beit Haemek, Israel). Cells were grown in Dulbecco’s modified eagle medium (DMEM) containing […] glucose, L-glutamine, sodium bicarbonate and sodium pyruvate, supplemented with 10% fetal bovine serum and pen-strep, at 37 °C and 5% CO2.
(§4) Lipopeptides cytotoxicity was determined using fluorescent measurements of reduced resazurin. 2 × 10^4 cells were first cultured in 96-well plates over-night (final volume of 100 µl) at 37 °C and 5% CO2. Then, the medium was removed and cells were incubated for an additional 24 h with serial twofold dilutions of the lipopeptides in growth medium. Then, 10 µl of Alamar blue were added and plates were incubated for 3 h, after which fluorescence (excitation: 530 nm; emission: 590 nm) of the reduced resazurin was recorded (BioTek Instruments Synergy HT; Winooski, VT, USA).

HEK-293FT = experiment: Cytotoxicity, Alamar blue; type: cell-based, human; settings: 24 h incubation, read-out: IC50 HEK-293FT (50% inhibition of cells respiration)
Experimental: as §3, §4

murine RBC = experiment: Hemolysis; type: cell-based; settings: 1% hematocrit murine RBC, 3 h, 37 °C
Experimental: Permeabilization of red blood cells (RBC) was evaluated using absorbance measurements of extracellular hemoglobin. Serial twofold dilutions of lipopeptides were incubated with 1% hematocrit of murine RBC for 3 h at 37 °C with shaking. Samples were then centrifuged at 20,000 RCF for 5 min, and absorbance of the supernatants was measured at 450 nm (BioTek Instruments Synergy HT; Winooski, VT, USA). Percent hemolysis was then calculated by (AS − AN)/(AP − AN) × 100; where AS, AN, and AP represent the absorbance of the sample, negative control (PBS) and positive control (Milli-Q water), respectively. LC50 values were extracted from trend-lines generated for linear-regions of plots correlating lipopeptide concentrations and percent hemolysis.

[1] = design: method as in PMID 28329302; settings: 40 mg/kg dose; cited from earlier work
[2] = system: E. coli Ag100 (wild-type); settings: cited from earlier work
Excerpt: Table 2 Effect of RND pumps on growth-inhibitory activity. | column: MIC^a (µM) in LB / E. coli / Wild-Type

E. coli Ag100a (ΔacrAB) [3] = settings: cited from earlier work
Excerpt: Table 2 Effect of RND pumps on growth-inhibitory activity. | column: MIC^a (µM) in LB / E. coli / Mutant

[4] = system: S. Typhimurium 14028 (wild-type); settings: cited from earlier work
Excerpt: Table 2 Effect of RND pumps on growth-inhibitory activity. | column: MIC^a (µM) in LB / S. Typhimurium / Wild-Type

[5] = system: S. Typhimurium 14028ΔAcrAB; settings: cited from earlier work
Excerpt: Table 2 Effect of RND pumps on growth-inhibitory activity. | column: MIC^a (µM) in LB / S. Typhimurium / Mutant

E. coli 25922 [6] = settings: same assessment tools; cited from earlier work
Excerpt: To our knowledge, the finding of an adjuvant whose activity is enhanced—rather than repressed—after efflux, is hitherto unreported. One might ask, at this point: If the K-, O and B-based analogs are efflux substrates (as implied by MIC data, Table 2), how come only C10BBc12B is positively affected by efflux?

[7] = system: E. coli Ag100 (wild-type); experiment: MIC, broth microdilution, wild-type strain; type: cell-based, Escherichia coli
Excerpt: as §1
(§5) MIC was determined according to the broth microdilution method: antimicrobials were subjected to serial twofold dilutions in LB medium, and incubated with 5 × 10^5 CFU/ml of bacteria (final volume of 200 µl) for 18–24 h at 37 °C. […]

E. coli Ag100a (ΔacrAB) [8] = experiment: MIC, broth microdilution, efflux deficient mutant; type: cell-based, Escherichia coli; settings: Ag100a
Excerpt: as §1, §5

[9] = system: S. Typhimurium 14028 (wild-type); experiment: MIC, broth microdilution, wild-type strain; type: cell-based, Salmonella enterica serovar Typhimurium
Excerpt: as §1, §5

[10] = system: S. Typhimurium 14028ΔAcrAB; experiment: MIC, broth microdilution, efflux deficient mutant; type: cell-based, Salmonella enterica serovar Typhimurium
Excerpt: as §1, §5

E. coli 25922 [11] = experiment: Outer membrane permeabilization, NPN fluorescence; type: cell-based, Escherichia coli
Experimental: Lipopeptides ability to permeabilize the OM was evaluated using fluorescent measurements of N-phenyl-1-naphthylamine (NPN)[67]. 200 µl of an over-night culture were diluted into 10 ml of fresh LB medium and incubated at 37 °C with shaking until reaching O.D.600 nm = 0.5. The culture was then centrifuged at 10,000 RCF for 3 min, the supernatant aspirated, and the pellet resuspended in equal volume of 5 mM HEPES containing 5 mM glucose (pH = 7.2). This suspension was then mixed with NPN (5 mM in acetone) to reach a final NPN concentration of 10 µM. Then, 190 µl of this mixture were dispensed into black microtiter plates, mixed with 10 µl of HEPES containing serial twofold dilutions of lipopeptides and fluorescence (excitation: 360 nm; emission: 460 nm) was recorded immediately for up to 10 min at 37 °C with shaking[29] (BioTek Instruments Synergy HT; Winooski, VT, USA). In a modified version of this assay, in which efflux was inhibited, bacteria (similarly prepared) were incubated with the lipopeptides in presence or absence of 100 µM CCCP for 5 min. Samples were then twice centrifuged at 10,000 RCF for 3 min, the supernatant aspirated, and the pellet resuspended in equal volume of 5 mM HEPES containing 20 mM glucose (pH = 7.2), so as to re-energize the efflux machinery. NPN was then added (final concentration of 10 µM) and fluorescence was recorded immediately thereafter.

E. coli 25922 [12] = experiment: Cytoplasmic membrane depolarization, DiSC3(5) fluorescence; type: cell-based, Escherichia coli; settings: C10BBc12B up to 10 µM; PMB 2.5 µM
Experimental: Lipopeptides aptitude to depolarize the CM was evaluated using fluorescent measurements of the transmembrane potential sensitive dye 3,3′-Dipropylthiadicarbocyanine iodide (DiSC3(5))[69]. Bacteria (O.D.600 nm = 0.1) were washed by centrifugation at 10,000 RCF for 5 min, supernatant aspiration, and pellet resuspension in 5 mM HEPES containing 20 mM glucose, 50 mM KCl and 0.2 mM EDTA (pH = 7.2). This suspension was mixed with DiSC3(5) (400 µM in DMSO) to reach a final DiSC3(5) concentration of 4 µM and was incubated in the dark for 1 h at 37 °C with shaking. Then, 180 µl of this mixture were dispensed into black microtiter plates and fluorescence was recorded (excitation: 622 nm; emission: 670 nm) at 37 °C with shaking until baseline stabilization (BioTek Instruments Synergy HT; Winooski, VT, USA). Finally, 20 µl of HEPES containing serial twofold dilutions of lipopeptides were added and fluorescence was recorded for up to 30 min at the same conditions.

[13] = system: Gram-negative ESKAPE pathogens; experiment: MIC against 10 bacterial strains of the four Gram-negative ESKAPE species; type: cell-based
Excerpt: as §1, §5

[14] = design: method as in PMID 20480482; settings: cited from earlier work
E. coli 25922 [15] = settings: ref 23 (C14(ɷ5)OOc10O), ref 41 (PMBN); cited from earlier work
Excerpt: Towards better understanding the synergistic mechanism, we compared individual growth kinetics to determine contributions of each antimicrobial and assessed the type and extent of implicated membrane damages, assuming that low OM-permeability underlies the observed antibiotics inefficiencies by impeding their intracellular accumulation.

Row | Compound | MIC E. coli (n=4) (E. coli) [µM] | MIC P. aeruginosa (n=3) (P. aeruginosa) [µM] | MIC K. pneumoniae (n=2) (K. pneumoniae) [µM] | MIC A. baumannii (n=1) (A. baumannii) [µM] | IC50 (RAW 264.7) [µM] | IC50 (HEK-293FT) [µM] | LC50 Erythrocytes (50% hemolysis) (murine RBC) [µM] | MIC (µM) in LB, E. coli Wild-Type [2] [µM] | MIC (µM) in LB, E. coli Mutant (E. coli Ag100a (ΔacrAB) [3]) [µM] | MIC (µM) in LB, S. Typhimurium Wild-Type [4] [µM] | MIC (µM) in LB, S. Typhimurium Mutant [5] [µM] | CM depolarization (E. coli 25922 [6]) | also measured
1 | CCCCCCCCCC(=O)N[C@@H](CCCN)C(=O)N[C@@H](CCCN)C(=O)NCCCCCCCCCCCC(=O)N[C@@H](CCCN)C(N)=O [C10OOc12O] (Decanoyl-[Orn][Orn][12Ado][Orn]-NH2) | ≥ 50 | > 50 | > 50 | > 50 | > 50 | > 50 | > 50 | > 50 | 6.2 (≈ 4.41 µg/mL) | > 50 | 6.2 (≈ 4.41 µg/mL) | interact with the CM to the point of inducing its depolarization | mortality [1]: mortality of another mouse was recorded within an hour
2 | CCCCCCCCCC(=O)N[C@@H](CCCCN)C(=O)N[C@@H](CCCCN)C(=O)NCCCCCCCCCCCC(=O)N[C@@H](CCCCN)C(N)=O [C10KKc12K] (Decanoyl-KK[12Ado]K-NH2) | ≥ 50 | > 50 | ≥ 50 | > 50 | > 50 | > 50 | > 50 | > 50 | 6.2 (≈ 4.67 µg/mL) | > 50 | 25 (≈ 18.8 µg/mL) | interact with the CM to the point of inducing its depolarization | 
3 | Polymyxin B [reference compound] |  |  |  |  |  |  |  |  |  |  |  |  | MIC (µM) in LB, E. coli Wild-Type [7]: 0.7 µM; MIC (µM) in LB, E. coli Mutant (E. coli Ag100a (ΔacrAB) [8]): 0.7 µM; MIC (µM) in LB, S. Typhimurium Wild-Type [9]: 0.7 µM; MIC (µM) in LB, S. Typhimurium Mutant [10]: 0.7 µM; reduction of NPN fluorescence by 10 mM MgCl2 (E. coli 25922 [11]): much less; CM depolarization (trans-membrane potential) (E. coli 25922 [12]): rapid CM-depolarization
4 | CCCCCCCCCC(=O)N[C@@H](CN)C(=O)N[C@@H](CN)C(=O)NCCCCCCCCCCCC(=O)N[C@@H](CN)C(N)=O [C10PPc12P] (Decanoyl-[Dap][Dap][12Ado][Dap]-NH2) | 12.5 to 25 |  | ≥ 50 | > 50 | > 50 | > 50 | 26 |  |  |  |  |  | MIC [13]: occasionally presented somewhat lower MIC values; side-chain β-NH2 group pKa [14]: 6.3
5 | polymyxin B nonapeptide [PMBN] |  |  |  |  |  |  |  |  |  |  |  |  | effect of sub-inhibitory concentrations on bacterial growth in absence of antibiotics (E. coli 25922 [15]): transiently inhibited bacterial growth
